Patent US20250134890A1, “ANTIMALARIAL HEXAHYDROPYRIMIDINE ANALOGUES” (UCB BIOPHARMA SRL, priority 2022, published 2025)
Where a name gives a salt, the structure may show the parent alone.

What follows are compounds tested on Plasmodium falciparum: 3D7 strain (assay: P. falciparum 3D7 asexual blood stage assay (SYBR green readout)). Conditions: Plasmodium falciparum, 3D7, Erythrocyte, 72 h, P. falciparum 3D7 in human erythrocytes, 72 h incubation, SYBR green fluorescence.
Assay type: cell-based
Procedure, shortened: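 3D7-infected erythrocytes (5% haematocrit, 0.5% parasitaemia) were exposed 72 h at 37 °C under 1% O2/3% CO2 to a 20-point titration (50,000-15 nM final, 0.5% DMSO). Parasite DNA was read by SYBR green fluorescence after overnight lysis. Percent inhibition was set against mefloquine and DMSO, and EC50 came from a biphasic two-site fit.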

C[C@H]1C[C@@H](N2C(=N)N[C@](C)(c3cccc(-c4cccc(Cl)c4)c3Cl)CC2=O)CCN1 (relative stereo) [Example 100, (6S)-6-[2-Chloro-3-(3-chloro-phenyl)phenyl]-2-imino-6-methyl-3-[(2S*,4S*)-2-methylpiperidin-4-yl]hexahydropyrimidin-4-one hydrochloride] and C[C@@H]1C[C@H](N2C(=N)N[C@](C)(c3cccc(-c4cccc(Cl)c4)c3Cl)CC2=O)CCN1 (relative stereo) [Example 101, (6S)-6-[2-Chloro-3-(3-chloro-phenyl)phenyl]-2-imino-6-methyl-3-[(2R*,4R*)-2-methylpiperidin-4-yl]hexahydropyrimidin-4-one hydrochloride] are within 1.5-fold of each other in IC50: 373 nM for the first, 392 nM for the second.

Going from C[C@H]1C[C@H](N2C(=N)N[C@](C)(c3cccc(-c4ccc(OC(F)F)nc4)c3Cl)CC2=O)CCS1(=O)=O (relative stereo) [Example 73, (6S)-6-{2-Chloro-3-[6-(difluoro-methoxy)pyridin-3-yl]phenyl}-2-imino-6-methyl-3-[(2S*,4R*)-2-methyl-1,1-dioxothian-4-yl]-hexahydropyrimidin-4-one hydrochloride] to C[C@H]1C[C@H](N2C(=N)N[C@](C)(c3cccc(-c4ccc(Cl)cn4)c3Cl)CC2=O)CCS1(=O)=O (relative stereo) [Example 76, (6S)-6-[2-Chloro-3-(5-chloro-pyridin-2-yl)phenyl]-2-imino-6-methyl-3-[(2S*,4R*)-2-methyl-1,1-dioxothian-4-yl]hexahydro-pyrimidin-4-one hydrochloride], the IC50 rises from 227 nM to 2460 nM (11-fold).

Going from C[C@H]1C[C@@H](N2C(=N)N[C@](C)(c3cccc(-c4cccc(C(O)C(F)F)c4)c3Cl)CC2=O)CCO1 (single isomer, unassigned) [Example 25, (6S)-6-(2-Chloro-3-{3-[(1R*)-2,2-difluoro-1-hydroxyethyl]phenyl}-phenyl)-2-imino-6-methyl-3-[(2S,4S)-2-methyltetrahydropyran-4-yl]hexahydropyrimidin-4-one hydrochloride] to C[C@H]1C[C@@H](N2C(=N)N[C@](C)(c3cccc(-c4cccc(C(F)(F)F)c4)c3Cl)CC2=O)CCO1 [Example 48, (6S)-6-{2-Chloro-3-[3-(trifluoro-methyl)phenyl]phenyl}-2-imino-6-methyl-3-[(2S,4S)-2-methyl-tetrahydropyran-4-yl]hexahydro-pyrimidin-4-one trifluoroacetic acid salt], the IC50 rises from 38 nM to 66 nM (1.7-fold). The first is the more potent here.

First: C[C@@]1(c2cccc(-c3cccc(Cl)c3)c2Cl)CC(=O)N([C@@H]2CCC(F)(F)[C@@H](O)C2)C(=N)N1 (relative stereo) [Example 24, (6S)-6-[2-Chloro-3-(3-chloro-phenyl)phenyl]-3-[(1R*,3S*)-4,4-difluoro-3-hydroxycyclohexyl]-2-imino-6-methylhexahydro-pyrimidin-4-one trifluoroacetic acid salt]
Second: C[C@H]1C[C@@H](N2C(=N)N[C@](C)(c3cccc(-c4cccc(Cl)c4)c3Cl)CC2=O)CC[C@@H]1O (relative stereo) [Example 105, (6S)-6-[2-Chloro-3-(3-chloro-phenyl)phenyl]-3-[(1R*,3R*,4R*)-4-hydroxy-3-methylcyclohexyl]-2-imino-6-methylhexahydro-pyrimidin-4-one hydrochloride]
The IC50 of the first is 14-fold lower: 112 nM for the first, 1560 nM for the second. The first is the more potent here.

Going from C[C@H]1C[C@@H](N2C(=N)N[C@](C)(c3cccc(-c4ccc(F)cc4F)c3Cl)CC2=O)CCN1 (relative stereo) [Example 102, (6S)-6-[2-Chloro-3-(2,4-difluoro-phenyl)phenyl]-2-imino-6-methyl-3-[(2S*,4S*)-2-methylpiperidin-4-yl]hexahydropyrimidin-4-one hydrochloride] to C[C@H]1C[C@@H](N2C(=N)N[C@](C)(c3cccc(-c4cc(F)ccc4F)c3Cl)CC2=O)CCO1 [Example 42, (6S)-6-[2-Chloro-3-(2,5-difluoro-phenyl)phenyl]-2-imino-6-methyl-3-[(2S,4S)-2-methyltetrahydro-pyran-4-yl]hexahydropyrimidin-4-one trifluoroacetic acid salt], the IC50 falls from 504 nM to 88 nM (5.7-fold).

First: C[C@H]1C[C@@H](N2C(=N)N[C@](C)(c3cccc(-c4cn(-c5cc(F)c(F)cc5F)nn4)c3Cl)CC2=O)CC[C@H]1O (relative stereo) [Example 112, (6S)-6-{2-Chloro-3-[1-(2,4,5-trifluorophenyl)-1,2,3-triazol-4-yl]-phenyl}-3-[(1S*,3S*,4R*)-4-hydroxy-3-methylcyclohexyl]-2-imino-6-methylhexahydro-pyrimidin-4-one hydrochloride]
Second: C[C@H]1C[C@@H](N2C(=N)N[C@](C)(c3cccc(-c4cn(-c5cccc(F)c5)nn4)c3Cl)CC2=O)CCO1 [Example 111, (6S)-6-{2-Chloro-3-[1-(3-fluoro-phenyl)-1,2,3-triazol-4-yl]phenyl}-2-imino-6-methyl-3-[(2S,4S)-2-methyltetrahydropyran-4-yl]-hexahydropyrimidin-4-one hydrochloride]
The IC50 of the first is 2-fold higher: 132 nM for the first, 66 nM for the second. The second is the more potent here.

Going from C[C@H]1C[C@@H](N2C(=N)N[C@](C)(c3cccc(-c4cncc(Cl)c4)c3Cl)CC2=O)CCO1 [Example 1, (6S)-6-[2-Chloro-3-(5-chloro-pyridin-3-yl)phenyl]-2-imino-6-methyl-3-[(2S,4S)-2-methyl-tetrahydropyran-4-yl]hexahydro-pyrimidin-4-one hydrochloride] to C[C@H]1C[C@@H](N2C(=N)N[C@](C)(c3cccc(-c4cccc(C#N)c4)c3Cl)CC2=O)CCO1 [Example 40, 3-(2-Chloro-3-{(4S)-2-imino-4-methyl-1-[(2S,4S)-2-methyl-tetrahydropyran-4-yl]-6-oxo-hexahydropyrimidin-4-yl}phenyl)-benzonitrile trifluoroacetic acid salt], the IC50 rises from 22 nM to 50 nM (2.3-fold). The first is the more potent here.

Going from C[C@H]1C[C@@H](N2C(=N)N[C@](C)(c3cccc(-c4cn(CCN(C)C)nn4)c3Cl)CC2=O)CCO1 [Example 114, (6S)-6-(2-Chloro-3-{1-[2-(dimethylamino)ethyl]-1,2,3-triazol-4-yl}phenyl)-2-imino-6-methyl-3-[(2S,4S)-2-methyl-tetrahydropyran-4-yl]hexahydro-pyrimidin-4-one trifluoroacetic acid salt] to COCCn1cc(-c2cccc([C@]3(C)CC(=O)N([C@H]4CCO[C@@H](C)C4)C(=N)N3)c2Cl)nn1 [Example 123, (6S)-6-{2-Chloro-3-[1-(2-methoxy-ethyl)-1,2,3-triazol-4-yl]phenyl}-2-imino-6-methyl-3-[(2S,4S)-2-methyltetrahydropyran-4-yl]-hexahydropyrimidin-4-one trifluoroacetic acid salt], the IC50 falls from 938 nM to 542 nM (1.7-fold).

Compared with C[C@@H]1C[C@H](N2C(=N)N[C@](C)(c3cccc(-c4cccc(Cl)c4)c3Cl)CC2=O)CC[C@@H]1O (relative stereo) [Example 7, (6S)-6-[2-Chloro-3-(3-chloro-phenyl)phenyl]-3-[(1R*,3R*,4S*)-4-hydroxy-3-methylcyclohexyl]-2-imino-6-methylhexahydro-pyrimidin-4-one hydrochloride], C[C@H]1C[C@@H](N2C(=N)N[C@](C)(c3cccc(-c4cccc(N5CCOCC5)c4)c3Cl)CC2=O)CCO1 [Example 29, (6S)-6-{2-Chloro-3-[3-(morpholin-4-yl)phenyl]phenyl}-2-imino-6-methyl-3-[(2S,4S)-2-methyl-tetrahydropyran-4-yl]hexahydro-pyrimidin-4-one trifluoroacetic acid salt] is 11-fold lower in IC50: 720 nM for the first, 65 nM for the second. The second is the more potent here.

First: C[C@H]1C[C@@H](N2C(=N)N[C@](C)(c3cccc(-c4cn(C5CCCNCC5)nn4)c3Cl)CC2=O)CCO1 (stereo partly drawn) [Example 129, (6S)-6-{3-[1-(Azepan-4-yl)-1,2,3-triazol-4-yl]-2-chlorophenyl}-2-imino-6-methyl-3-[(2S,4S)-2-methyltetrahydropyran-4-yl]-hexahydropyrimidin-4-one trifluoroacetic acid salt]
Second: C[C@H]1C[C@@H](N2C(=N)N[C@](C)(c3cccc(-c4cccc5cnn(C)c45)c3Cl)CC2=O)CCO1 [Example 56, (6S)-6-[2-Chloro-3-(1-methyl-indazol-7-yl)phenyl]-2-imino-6-methyl-3-[(2S,4S)-2-methyl-tetrahydropyran-4-yl]hexahydro-pyrimidin-4-one trifluoroacetic acid salt]
The IC50 of the first is 280-fold higher: 11900 nM for the first, 43 nM for the second.

Going from C[C@@]1(c2cccc(-c3ccc(C4CC4)nc3)c2Cl)CC(=O)N([C@@H]2CCC(F)(F)[C@H](O)C2)C(=N)N1 (relative stereo) [Example 98, (6S)-6-[2-Chloro-3-(6-cyclopropyl-pyridin-3-yl)phenyl]-3-[(1R*,3R*)-4,4-difluoro-3-hydroxycyclohexyl]-2-imino-6-methylhexahydro-pyrimidin-4-one hydrochloride] to C[C@H]1C[C@@H](N2C(=N)N[C@](C)(c3cccc(-c4c(F)cccc4F)c3Cl)CC2=O)CCO1 [Example 47, (6S)-6-[2-Chloro-3-(2,6-difluoro-phenyl)phenyl]-2-imino-6-methyl-3-[(2S,4S)-2-methyltetrahydro-pyran-4-yl]hexahydropyrimidin-4-one trifluoroacetic acid salt], the IC50 falls from 297 nM to 44 nM (6.8-fold). The second is the more potent here.

Same assay, conditions: Plasmodium falciparum, Erythrocyte; P. falciparum 3D7 in human erythrocytes, 72 h incubation, SYBR green fluorescence; read-out: IC50

Compared with CN(C)[C@H]1C[C@H](N2C(=N)N[C@](C)(c3cccc(-c4ccc(F)cc4F)c3Cl)CC2=O)C1 (single isomer, unassigned; isomer 1) [Example 88], C[C@H]1C[C@@H](N2C(=N)N[C@](C)(c3cccc(-c4cccc([C@@H](O)C(F)(F)F)c4)c3Cl)CC2=O)CCO1 (relative stereo) [Example 27, (6S)-6-(2-Chloro-3-{3-[(1R*)-2,2,2-trifluoro-1-hydroxyethyl]-phenyl}phenyl)-2-imino-6-methyl-3-[(2S,4S)-2-methyltetrahydro-pyran-4-yl|hexahydropyrimidin-4-one hydrochloride] is 15-fold lower in IC50: 657 nM for the first, 44 nM for the second.
